Experimental data from article PMC5405074, “Receptor-Mediated Melanoma Targeting with Radiolabeled α-Melanocyte-Stimulating Hormone: Relevance of the Net Charge of the Ligand” (Frontiers in Endocrinology, 2017).
Marks after values point to notes of the source that are not given here. Non-standard residues stand in square brackets, D forms with d. Residues, ends and D or L forms follow the SMILES beside them. *: point of attachment. DOTA = O=C(O)CN1CCN(CC(=O)O)CCN(CC(=O)*)CCN(CC(=O)O)CC1; Nle = CCCC[C@H](N)C(=O)O

Experiments:
[1] = tested on: B16-F1 cells; experiment: In situ melanin assay in B16-F1 cells; type: cell-based, mouse; conditions: for Reduction of biological activity compared to DOTA-NAP-amide: melanin assay
Method: The biological activity of the α-MSH derivatives was assessed with an in situ melanin assay ([40]). Briefly, B16-F1 cells (2,500 cells per well in 100 µL) were distributed into 96-well flat-bottom cell culture plates. MEM without phenol red, supplemented with 10% heat-inactivated fetal calf serum, 2 mM L-glutamine, 0.31 mmol/L L-tyrosine, 1% non-essential amino acids, 1% vitamin solution, 50 IU/mL penicillin, and 50 µg/mL streptomycin, was used as culture medium. After overnight incubation at cell culture conditions mentioned above, concentrations of α-MSH derivatives ranging from 1 × 10^−8 to 1 × 10^−12 in 100-µL volumes were added (in threefold dilution steps), and the incubation was continued for an additional 72 h. Melanin production was quantified by determining the absorbance at 310 nm in a microplate reader.

[2] = in vivo; cited from earlier work

Compound	Reduction of biological activity compared to DOTA-NAP-amide [1]	Reduction of biological activity compared to DOTA-NAP-amide ([1]; listed as DOTA-NAP by D-Asp-D-Asp)	Biological activity rEC50 [α-MSH = 1] ([1]; relative concentration vs. α-MSH (=1) inducing half-maximal melanin production by B16-F1 cells, 72 h, absorbance 310 nm, n = 3–13, ^c = P < 0.05 vs. DOTA-NAP-amide)	Tumor and non-tumor tissue uptake (in words) [2]
CCCC[C@H](NC(C)=O)C(=O)N[C@@H](CC(=O)O)C(=O)N[C@@H](Cc1c[nH]cn1)C(=O)N[C@H](Cc1ccccc1)C(=O)N[C@@H](CCCNC(=N)N)C(=O)N[C@@H](Cc1c[nH]c2ccccc12)C(=O)NCC(=O)N[C@@H](CCCCNC(=O)CN1CCN(CC(=O)O)CCN(CC(=O)O)CCN(CC(=O)O)CC1)C(=O)N[C@H](CC(=O)O)C(=O)N[C@H](CC(=O)O)C(=O)O [DOTA-NAP-D-Asp-D-Asp, Ac-Nle-Asp-His-D-Phe-Arg-Trp-Gly-Lys(DOTA)-D-Asp-D-Asp-OH] (Ac-[Nle]DH[dF]RWGK(DOTA)[dD][dD]-OH)	> 10 fold	around 11 fold	7.66 ± 0.33^c	–
CCCC[C@H](NC(C)=O)C(=O)N[C@@H](CC(=O)O)C(=O)N[C@@H](Cc1c[nH]cn1)C(=O)N[C@H](Cc1ccccc1)C(=O)N[C@@H](CCCNC(=N)N)C(=O)N[C@@H](Cc1c[nH]c2ccccc12)C(=O)NCC(=O)N[C@@H](CCCCNC(=O)CN1CCN(CC(=O)O)CCN(CC(=O)O)CCN(CC(=O)O)CC1)C(N)=O [DOTA-NAP-amide, [Ac-Nle^4,Asp^5,D-Phe^7,Lys^11(DOTA)]-α-MSH4-11, reference compound]	–	–	–	highest tumor uptake paired with minimal non-tumor tissue uptake, except for the kidneys
